The results in this text go back to patent US8513423B2 (Janssen Pharmaceutica, NV, priority 2010, dated 2013).

For assay [1], the target named is T1, MGL (Rattus norvegicus, UniProt Q8R431).
T1 construct: one g rat brain was homogenized; from tissue; host or cells: rat brain homogenate
T1 sequence (Q8R431 1-303): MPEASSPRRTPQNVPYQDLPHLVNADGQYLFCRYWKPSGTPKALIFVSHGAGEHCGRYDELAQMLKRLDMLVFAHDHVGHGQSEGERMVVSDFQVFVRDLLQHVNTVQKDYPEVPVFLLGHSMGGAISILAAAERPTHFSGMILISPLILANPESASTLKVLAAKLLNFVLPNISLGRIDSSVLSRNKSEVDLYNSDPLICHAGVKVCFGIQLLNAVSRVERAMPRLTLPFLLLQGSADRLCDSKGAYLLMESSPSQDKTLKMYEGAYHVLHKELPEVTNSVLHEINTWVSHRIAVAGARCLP
In words: 2-AG accumulation assay in rat brain homogenate. In kind it is biochemical. The following applies: compound @1 μM, read-out: Rat Brain 2AG % VehCntrl (%) @1 μM. On the procedure:
After a 15-min incubation time at 37° C., CaCl2 (final concentration=10 mM) was added and then incubated for 15 min at 37° C. in a total volume of 5 mL. The reactions were stopped with 6 mL organic solvent extraction solution of 2:1 chloroform/methanol. Accumulated 2-AG in the organic phase was measured by a HPLC/MS method, according to the following equation: percent vehicle=(2-AG accumulation in the presence of compound/2-AG accumulation in vehicle)×100.

In assay [2] the target is T2, mutant MGL (Homo sapiens, UniProt Q99685, L169S/L176S).
T2 construct: purified mutant MGL (mut-MGLL 11-313 L179S L186S)
T2 sequence (Q99685 1-303 L169S/L176S): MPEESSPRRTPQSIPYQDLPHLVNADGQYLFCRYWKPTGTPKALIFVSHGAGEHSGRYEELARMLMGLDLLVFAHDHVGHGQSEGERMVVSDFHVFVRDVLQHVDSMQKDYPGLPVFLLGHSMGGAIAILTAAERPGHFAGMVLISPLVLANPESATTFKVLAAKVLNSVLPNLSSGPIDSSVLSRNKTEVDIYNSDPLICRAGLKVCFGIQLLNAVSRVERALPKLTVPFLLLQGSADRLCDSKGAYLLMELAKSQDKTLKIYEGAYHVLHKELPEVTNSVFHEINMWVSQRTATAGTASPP
In words: MGL ThermoFluor assay - mutant. The class given is binding. On the procedure:
The ThermoFluor (TF) assay is a 384-well plate-based binding assay that measures thermal stability of proteins^1,2. The experiments were carried out using instruments available from Johnson & Johnson Pharmaceutical Research & Development, LLC. TF dye used in all experiments was 1,8-ANS (Invitrogen: A-47). Final TF assay conditions used for MGL studies were 0.07 mg/ml of mutant MGL, 100 μM ANS, 200 mM NaCl, 0.001% Tween-20 in 50 mM PIPES (pH=7.0).
Screening compound plates contained 100% DMSO compound solutions at a single concentration. For follow-up concentration-response studies, compounds were arranged in a pre-dispensed plate (Greiner Bio-one: 781280), wherein compounds were serially diluted in 100% DMSO across 11 columns within a series. Columns 12 and 24 were used as DMSO reference and contained no compound. For both single and multiple compound concentration-repsonse experiments, the compound aliquots (46 nL) were robotically predispensed directly into 384-well black assay plates (Abgene: TF-0384/k) using the Hummingbird liquid handler. Following compound dispension, protein and dye solutions were added to achieve the final assay volume of 3 μL. The assay solutions were overlayed with 1 μl of silicone oil (Fluka, type DC 200: 85411) to prevent evaporation.
Bar-coded assay plates were robotically loaded onto a thermostatically controlled PCR-type thermal block and then heated from 40 to 90° C. degrees at a ramp-rate of 1° C./min for all experiments. Fluorescence was measured by continuous illumination with UV light (Hamamatsu LC6), supplied via fiber optics and filtered through a band-pass filter (380-400 nm; >6 OD cutoff). Fluorescence emission of the entire 384-well plate was detected by measuring light intensity using a CCD camera (Sensys, Roper Scientific) filtered to detect 500±25 nm, resulting in simultaneous and independent readings of all 384 wells. A single image with 20-sec exposure time was collected at each temperature, and the sum of the pixel intensity in a given area of the assay plate was recorded vs temperature and fit to standard equations to yield the Tm^1. • 1. Pantoliano, M. W., Petrella, E. C., Kwasnoski, J. D., Lobanov, V. S., Myslik, J., Graf, E., Carver, T., Asel, E., Springer, B. A., Lane, P., and Salemme, F. R. (2001) J Biomol Screen 6, 429-40. • 2. Matulis, D., Kranz, J. K., Salemme, F. R., and Todd, M. J. (2005) Biochemistry 44, 5258-66.
The Kd values for compounds of Formula (I) were determined from a fit of the equation to the concentration-response plot of the fractional activity as a function of Tm. For some experiments, quantitative NMR spectroscopy (qNMR) was used to measure concentration of the initial 100% DMSO compound solutions and, using the same fitting method, qKd values were determined
A general note: In DSF a fluorescence change marks the thermal transition of the protein.

Assay [3] addresses T3, purified wild type MGL (wt-MGLL 6H-11-313) (Homo sapiens, UniProt Q99685).
T3 construct: purified wild type MGL (wt-MGLL 6H-11-313)
T3 sequence (Q99685 1-303): T2 sequence (Q99685 1-303 L169S/L176S) with S169L, S176L
In words: MGL enzyme activity assay (4MU-B cleavage), wild type MGL. The class given is biochemical. The note with it: 10 μM 4MU-B, 5 nM enzyme, 37° C., read-out: MGL wild type inh IC50. On the procedure: All rate-based assays were performed in black 384-well polypropylene PCR microplates (Abgene) in a total volume of 30 μL. Substrate 4-methylumbelliferyl butyrate (4MU-B; Sigma) and either purified mutant MGL (mut-MGLL 11-313 L179S L186S) or purified wild type MGL (wt-MGLL 6H-11-313) were diluted separately into 20 mM PIPES buffer (pH=7.0), containing 150 mM NaCl and 0.001% Tween 20. Compounds of Formula (I) were pre-dispensed (50 nL) into the assay plate using a Cartesian Hummingbird prior to adding 4MU-B (25 μL of 1.2× solution to a final concentration of 10 μM) followed by enzyme (5 μL of a 6× solution to a final concentration of 5 nM) to initiate the reaction. Final compound concentrations ranged from 17 to 0.0003 μM. The fluorescence change due to 4MU-B cleavage was monitored with excitation and emission wavelengths of 335 and 440 nm, respectively, and a bandwidth of 10 nm (Safire^2, Tecan) at 37° C. for 5 min.
The IC50 values for compounds of Formula (I) were determined using Excel from a fit of the equation to the concentration-response plot of the fractional activity as a function of inhibitor concentration.

Where [4] appears, read: 0.07 mg/ml mutant MGL, pH=7.0, read-out: MGL mutant ThermoFluor Kd.
The mark [5] stands for this setting: compound concentration measured by qNMR, read-out: MGL mutant ThermoFluor qKd (using qNMR conc.).

Residue numbers refer to the chain shown, from its start. pIC50, pKd: −log10 of the molar value. Where two headings read alike, the source gives them in different places. A value given as a limit tells only on which side of the number the result lay.

In general, pIC50 refers to −log10 of the IC50, conventionally taken in molar units. In the case of `O=C(c1ccc(Cc2cccc(C(F)(F)F)c2)cc1)N1CCC(C2CN(C(=O)c3ccc[nH]3)C2)CC1` [Cpd 59, 4-[1-(1H-Pyrrol-2-ylcarbonyl)azetidin-3-yl]-1-({4-[3-(trifluoromethyl)benzyl]phenyl}carbonyl)piperidine], in assay [1], the 2-AG accumulation, percent of vehicle control at 1 µM is 346%. The pKd in assay [2] (setting [4]) was 7.69; in assay [2] (setting [5]), 8.03. Also, the pIC50 in assay [3] was 7.96.
As for `O=C(c1ccc2nc(-c3ccccc3)oc2c1)N1CCC(C2CN(C(=O)c3cscn3)C2)CC1` [Cpd 67, 2-Phenyl-6-({4-[1-(1,3-thiazol-4-ylcarbonyl)azetidin-3-yl]piperidin-1-yl}carbonyl)-1,3-benzoxazole], the 2-AG accumulation, percent of vehicle control at 1 µM in assay [1] is 590%. In addition, the pKd in assay [2] (setting [5]) was 8.18. Also, the pIC50 in assay [3] was 7.18.
Consider `O=C(c1ccc2c(ccn2-c2ccc(F)cc2)c1)N1CC(C2CCN(C(=O)c3nccs3)CC2)C1` [Cpd 30, 1-(4-Fluorophenyl)-5-({3-[1-(1,3-thiazol-2-ylcarbonyl)piperidin-4-yl]azetidin-1-yl}carbonyl)-1H-indole], for which the 2-AG accumulation, percent of vehicle control at 1 µM in assay [1] was determined as 443%. For the same compound, the pKd in assay [2] (setting [4]) is 8.60. Moreover, the pIC50 in assay [3] is above 8.30.
For `O=C(c1ccc2nc(-c3ccccc3)oc2c1)N1CCC(C2CN(C(=O)c3nccs3)C2)CC1` [Cpd 66, 2-Phenyl-6-({4-[1-(1,3-thiazol-2-ylcarbonyl)azetidin-3-yl]piperidin-1-yl}carbonyl)-1,3-benzoxazole], the 2-AG accumulation, percent of vehicle control at 1 µM in assay [1] was 889%. In addition, in assay [2] (setting [5]), the pKd is 8.17. In addition, the pIC50 in assay [3] was 7.72.
Consider `O=C(c1ccc2c(ccn2-c2ccc(C(F)(F)F)cc2)c1)N1CC(C2CCN(C(=O)c3nccs3)CC2)C1` [Cpd 31, 5-({3-[1-(1,3-Thiazol-2-ylcarbonyl)piperidin-4-yl]azetidin-1-yl}carbonyl)-1-[4-(trifluoromethyl)phenyl]-1H-indole], for which the 2-AG accumulation, percent of vehicle control at 1 µM in assay [1] worked out at 779%. In assay [2] (setting [4]), the pKd was 8.59. Further, the negative-log IC50 (pIC50) in assay [3] was above 8.30.
On to `O=C(c1ccc(Cc2ccc(C(F)(F)F)cc2)cc1)N1CCC(C2CN(C(=O)c3nccs3)C2)CC1` [Cpd 63, 4-[1-(1,3-Thiazol-2-ylcarbonyl)azetidin-3-yl]-1-({4-[4-(trifluoromethyl)benzyl]phenyl}carbonyl)piperidine], for which the 2-AG accumulation, percent of vehicle control at 1 µM in assay [1] came to 435%. The pKd in assay [2] (setting [5]) was 7.76. Besides, in assay [3], the pIC50 was above 8.30.
With `O=C(c1nccs1)N1CC(C2CCN(C(=O)c3sc4cc(C(F)(F)F)ccc4c3Cl)CC2)C1` [Cpd 69, 1-{[3-Chloro-6-(trifluoromethyl)-1-benzothiophen-2-yl]carbonyl}-4-[1-(1,3-thiazol-2-ylcarbonyl)azetidin-3-yl]piperidine], the 2-AG accumulation, percent of vehicle control at 1 µM in assay [1] worked out at 539%. For the same compound, the pKd in assay [2] (setting [5]) was 8.92. The pIC50 in assay [3] was above 8.30.
As for `O=C(c1nccs1)N1CCC(C2CN(C(=O)c3sc4cc(F)ccc4c3Cl)C2)CC1` [Cpd 8, 4-{1-[(3-Chloro-6-fluoro-1-benzothiophen-2-yl)carbonyl]azetidin-3-yl}-1-(1,3-thiazol-2-ylcarbonyl)piperidine], the 2-AG accumulation, percent of vehicle control at 1 µM in assay [1] is 523%. In assay [2] (setting [4]), the pKd was 8.40. Further, the negative-log IC50 (pIC50) in assay [3] is 8.15.
`O=C(c1ccc2c(ccn2-c2ccc(C(F)(F)F)cc2)c1)N1CCC(C2CN(C(=O)c3ccc[nH]3)C2)CC1` [Cpd 77, 5-({4-[1-(1H-Pyrrol-2-ylcarbonyl)azetidin-3-yl]piperidin-1-yl}carbonyl)-1-[4-(trifluoromethyl)phenyl]-1H-indole]: the 2-AG accumulation, percent of vehicle control at 1 µM in assay [1] was 714%. In addition, the pKd in assay [2] (setting [5]) is 8.30. In assay [3], the pIC50 is above 8.30.
On to `O=C(c1ccc2nc(-c3ccccc3)oc2c1)N1CCC(C2CN(C(=O)c3ccc[nH]3)C2)CC1` [Cpd 68, 2-Phenyl-6-({4-[1-(1H-pyrrol-2-ylcarbonyl)azetidin-3-yl]piperidin-1-yl}carbonyl)-1,3-benzoxazole], for which the 2-AG accumulation, percent of vehicle control at 1 µM in assay [1] came out at 453%. Further, in assay [2] (setting [5]), the pKd is 7.84. The pIC50 in assay [3] is 7.21.
Consider `O=C(c1cscn1)N1CCC(C2CN(C(=O)c3sc4cc(F)ccc4c3Cl)C2)CC1` [Cpd 7, 4-{1-[(3-Chloro-6-fluoro-1-benzothiophen-2-yl)carbonyl]azetidin-3-yl}-1-(1,3-thiazol-4-ylcarbonyl)piperidine], for which, in assay [1], the 2-AG accumulation, percent of vehicle control at 1 µM is 185%. Moreover, the pKd in assay [2] (setting [4]) is 7.60. For the same compound, in assay [3], the pIC50 was 7.25.
In the same order, the values of `O=C(c1ccc(-c2ccccc2)cc1)N1CC(C2CCN(C(=O)c3ccns3)CC2)C1` [Cpd 3, 4-[1-(Biphenyl-4-ylcarbonyl)azetidin-3-yl]-1-(isothiazol-5-ylcarbonyl)piperidine] are 135%, 7.25 and 7.47.
For `O=C(c1ccc(Cc2ccc(C(F)(F)F)cc2)cc1)N1CC(C2CCN(C(=O)c3cscn3)CC2)C1` [Cpd 33, 1-(1,3-Thiazol-4-ylcarbonyl)-4-[1-({4-[4-(trifluoromethyl)benzyl]phenyl}carbonyl)azetidin-3-yl]piperidine] the same measures were 696%, 7.20 and above 8.30.
